Measurements taken from patent publication US12673022B2, “Drug delivery system using solution” (Kyoto University, priority 2018, dated 2026).

Assays:
[1] = test system: C57BL/6J mouse right lower limb gastrocnemius; assay: DNA mutation introduction efficiency using mRosa26 gRNA (T7E1 assay) after local administration; format: in vivo
Procedure: Cas9 protein (20 μg), mRosa26 gRNA (5 μg), 10×PBS (5 μL) and a 2.0 M aqueous 2′-deoxycytidine solution (6.25 μL) were mixed so as to obtain an aqueous solution having final concentrations of 400 ng/μL Cas9 protein, 100 ng/μL mRosa26 gRNA, 533 mM sodium chloride and 250 mM 2′-deoxycytidine. The concentration of the resultant solution was adjusted to be 533 mM with a 5 M aqueous sodium chloride solution, diluted with UltraPure DNase/RNase-Free Distilled Water up to a liquid volume of 50 μL and incubated at normal temperature for 15 minutes. […] The Cas9 protein herein was subjected to buffer replacement with 250 mM sodium chloride by use of Amicon® Ultra 2 mL Centrifugal Filters and then put in use.
Cas9 protein (40 μg), mRosa26 gRNA (10 μg), 10×PBS (5 μL), and a […] compound stock solution (25 μL) were mixed so as to obtain final concentrations: 800 ng/μL Cas9 protein, 200 ng/μL mRosa26 gRNA, 533 mM sodium chloride and 250 mM compound. […]
To the right lower limb gastrocnemius of each of 9 weeks-old male C57BL/6J mice (CLEA Japan, Inc), administration solution 1 or administration solution 2 and PBS (50 μL) were administered. […] The resultant PCR product was purified by QIAquick PCR purification kit (QIAGEN), treated with T7 Endonuclease I (NEB) and analyzed by Agilent 4200 TapeStation (Agilent). […]
As shown in FIG. 10 and FIG. 11, to find statistical significant difference between GABA and each conditions of the compounds, Dunnett's multiple comparison test using DNA mutation introduction efficiency, Indel (%), and exon skipping efficiency, was carried out. It was determined that if P value is less than 0.05, these is a statistically significant difference. […]
A solution for transduction containing 2′-deoxycytidine as a compound (A3) and sodium chloride as the (B) salt was prepared. […] Administration solution 1 was locally administered to the mouse right lower limb gastrocnemius and the activity to cleave a target gene was evaluated. […]

[2] = test system: EGFP reporter cells (C2C12 cells); assay: EGFP-SSA assay: uptake of Cas9 protein/gRNA complex into cells (EGFP positive rate); format: cell-based, mouse; details: Example 1; compound 100.0 mM; reaction solution 1 (550 mM sodium chloride, 1 mM HEPES, Cas9 protein/gRNA), 30 minutes
[3] = test system: EGFP reporter cells (C2C12 cells); assay: Number of HOECHST cells detected (cell viability) in the EGFP-SSA assay; details: Example 1, formula (2)
Procedure: To each of the solutions, a complex of gRNA and Cas9 protein was further dissolved. Mouse myoblasts (C2C12 cells) were contacted with each of the solutions in vitro, and target gene cleavage activity and cell viability were evaluated.

[4] = test system: EGFP reporter cells (C2C12 cells); assay: EGFP-SSA assay: uptake of Cas9 protein/gRNA complex into cells (EGFP positive rate); format: cell-based, mouse; details: Example 1; compound 250.0 mM; reaction solution 1 (550 mM sodium chloride, 1 mM HEPES, Cas9 protein/gRNA), 30 minutes
From the text: EGFP-SSA assay: an abbreviation of EGFP-single strand annealing assay. The reporter cassette shown in FIG. 1 is inserted in EGFP reporter cells. In the middle of the EGFP sequence of the cassette, MmDMD-Ex51 sequence is inserted. Since the presence of MmDMD-Ex51 sequence, by which EGFP ORF is divided, EGFP protein is not usually translated. However, when target sequence of MmDMD-Ex51 is cleaved by Cas9 protein/gRNA complex, the upstream region (EG part) and the downstream region (FP part) of EGFP ORF are annealed via a homology area into a single strand, with the result that a full-length EGFP ORF emerges to produce EGFP protein. Based on this principle, the ratio of the number of cells producing EGFP is checked by the EGFP-SSA assay. In this manner, the amount of Cas9 protein/gRNA complex delivered to cells can be predicted.
(§1) Cas9 protein (0.4 μg), tracrRNA (34.18 ng), MmDmd Ex51 crRNA (29.48 ng), a 1 M HEPES buffer (0.05 μL) and a 5 M aqueous sodium chloride solution (5.5 μL) were mixed and diluted with UltraPure DNase/RNase-Free Distilled Water up to a liquid volume of 37.5 μL so as to obtain final concentrations: 8 ng/μL Cas9 protein, 0.68 ng/μL tracrRNA, 0.59 ng/μL MmDmd Ex51 crRNA, 1 mM HEPES, 550 mM sodium chloride, and 250 mM compound. To this solution, a 1000 mM compound solution (12.5 μL) was added and the solution mixture was incubated at normal temperature for 15 minutes.
as §1, with “buffer (2.5” for “buffer (0.05”, “solution (4.85” for “solution (5.5”, “crRNA, 50” for “crRNA, 1”, “HEPES, 485” for “HEPES, 550”, “minutes. Note that, in the cases where the final concentrations of the compound are 0.69 mM, 25 mM, 100 mM, 125 mM, 160 mM, 200 mM and 500 mM, the compound stock solution was diluted with UltraPure DNase/RNase-Free Distilled Water up to concentrations of 2.76 mM, 100 mM, 400 mM, 500 mM, 640 mM, 800 mM and 2000 mM, respectively, and then, added. […]” for “minutes.”
Cas9 protein (2.0 μg), tracrRNA (170.9 ng), MmDmd Ex51 crRNA (147.4 ng), a 1 M HEPES buffer (12.5 μL), a 5 M aqueous sodium chloride solution (18.35 μL) and a 1 M aqueous GABA solution (62.5 μL) were mixed, diluted with UltraPure DNase/RNase-Free Distilled Water up to a liquid volume of 250 μL so as to obtain final concentrations: 8 ng/μL Cas9 protein, 0.68 ng/μL tracrRNA, 0.59 ng/μL MmDmd Ex51 crRNA, 50 mM HEPES, 250 mM GABA and 367 mM sodium chloride, and incubated at normal temperature for 15 minutes. Note that the addition amount of the 5 M aqueous sodium chloride solution was changed to 24.25 μL in the case of 485 mM sodium chloride and the addition amount was changed to 27.5 μL in the case of 550 mM sodium chloride, respectively.

SMILES | Genome editing (mutation introduction efficiency, indel (%)) ([1]; Example 5, administration solution 1: 250 mM 2′-deoxycytidine, sodium chloride 163, 233, 333, 433 or 533 mM, mRosa26 gRNA/Cas9, 50 μL for 3 consecutive days, FIG. 9) | Compound activity: EGFP positive rate (%) [2] | Relative ratio to GABA: Number of HOECHST cells ([3]; compound 100.0 mM vs 250 mM GABA positive control on the same plate) | Compound activity: EGFP positive rate (%) [4] | Genome editing efficiency (indel (%)) compared to 250 mM GABA ([1]; Example 6, administration solution 2: 25 mM or 250 mM 2′-deoxycytidine, 6-phospho-D-gluconic acid, N-carbamyl-L-aspartic acid or 2-deoxy-D-glucose-6-phosphate, 533 mM sodium chloride, 50 μL once, Dunnett's test, FIG. 10) | Relative ratio to GABA: Number of HOECHST cells ([3]; compound 250.0 mM vs 250 mM GABA positive control on the same plate)
Nc1ccn([C@H]2C[C@H](O)[C@@H](CO)O2)c(=O)n1 [2′-Deoxycytidine] | Genome editing was confirmed | 1.10% | 1.01 |  |  | 
O=CC[C@@H](O)[C@H](O)[C@H](O)COP(=O)(O)O [Oxy-D-glucose-6-phosphate, 2-deoxy-D-glucose-6-phosphate] |  |  |  | 1.38% | statistically significant results compared to GABA | 1.06
